Results reported in patent US8541427B2, “Phenyl-substituted 2-imino-3-methyl pyrrolo pyrimidinone compounds as BACE-1 inhibitors, compositions, and their use” (Merck, Sharp & Dohme, Corp., priority 2008, dated 2013).
Read-outs that look alike come from different tables or passages of the source.

Legend:
[1] = target: CYP2C9 (Homo sapiens (Human), UniProt P11712); experiment: CYP Inhibition Assay, CYP2C9; type: in vitro ADME; conditions: human liver microsomes;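 note: probe substrate held close to its Km, with metabolite formation quantified by LC-MS/MS against a calibration curve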
[2] = target: CYP3A4 (Homo sapiens (Human), UniProt P08684); experiment: CYP Inhibition Assay, CYP3A4; type: in vitro ADME; conditions: human liver microsomes;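 note: CYP probe substrate held near its Km, inhibition judged from metabolite formation quantified by LC-MS/MS against a standard curve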
[3] = target: CYP2D6 (Homo sapiens (Human), UniProt P10635); experiment: CYP Inhibition Assay, CYP2D6; type: in vitro ADME; conditions: human liver microsomes
[4] = target: soluble human BACE1 catalytic domain (Homo sapiens (Human), UniProt P56817); experiment: BACE1 HTRF FRET Assay; type: biochemical; conditions: Ki calculated from IC50 with Cheng-Prusoff equation;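 note: cleavage of a quenched APP Swedish mutant peptide (QSY7 quencher, Europium donor) measured as rise in 620 nm fluorescence after 1.5 h at 30 °C, inhibition suppresses signal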
[5] = target: BACE1 (Aβ40 in HEK293-APPswe/lon cells) (Homo sapiens (Human), UniProt P56817); experiment: BACE Inhibitor Whole Cell IC50 Determination Using HEK293-APPswe/lon Cells (Aβ40); type: cell-based; conditions: 4 hours
[6] = target: human liver Cathepsin D (Homo sapiens (Human), UniProt P07339); experiment: Human Cathepsin D FRET Assay; type: biochemical; conditions: selectivity with respect to Cathepsin D vs BACE1
[7] = target: hERG (Homo sapiens (Human), UniProt Q12809); experiment: hERG screening, IonWorks Quattro (hERG L929 cells); type: cell-based; conditions: L929 cells expressing hERG; for inhibition at 5 min, 1 uM: read-out: HERG Ionworks % Inhib 1 uM; for inhibition at 5 min, 10 uM: read-out: HERG Ionworks % Inhib 10 uM
[8] = 30 min pre-incubation with NADPH, read-out: CYP 2C9 IC50 pre
[9] = co-incubation, read-out: CYP 2C9 IC50 co
[10] = 30 min pre-incubation with NADPH, read-out: CYP 3A4 IC50 pre
[11] = co-incubation, read-out: CYP 3A4 IC50 co
[12] = 30 min pre-incubation with NADPH, read-out: CYP 2D6 IC50 pre
[13] = co-incubation, read-out: CYP 2D6 IC50 co

Chain of soluble human BACE1 catalytic domain (P56817 75-416): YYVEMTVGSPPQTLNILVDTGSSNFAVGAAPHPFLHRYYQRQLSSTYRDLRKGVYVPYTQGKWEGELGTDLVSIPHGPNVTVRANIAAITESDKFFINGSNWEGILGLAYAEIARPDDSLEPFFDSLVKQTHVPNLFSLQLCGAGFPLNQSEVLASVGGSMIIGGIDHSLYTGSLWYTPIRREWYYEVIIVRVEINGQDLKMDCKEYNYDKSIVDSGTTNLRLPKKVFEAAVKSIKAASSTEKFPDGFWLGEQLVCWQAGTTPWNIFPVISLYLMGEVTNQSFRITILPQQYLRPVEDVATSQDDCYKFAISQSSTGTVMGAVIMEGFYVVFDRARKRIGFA
Chain of CYP2D6 (P10635 whole entry, the tested form may be a part): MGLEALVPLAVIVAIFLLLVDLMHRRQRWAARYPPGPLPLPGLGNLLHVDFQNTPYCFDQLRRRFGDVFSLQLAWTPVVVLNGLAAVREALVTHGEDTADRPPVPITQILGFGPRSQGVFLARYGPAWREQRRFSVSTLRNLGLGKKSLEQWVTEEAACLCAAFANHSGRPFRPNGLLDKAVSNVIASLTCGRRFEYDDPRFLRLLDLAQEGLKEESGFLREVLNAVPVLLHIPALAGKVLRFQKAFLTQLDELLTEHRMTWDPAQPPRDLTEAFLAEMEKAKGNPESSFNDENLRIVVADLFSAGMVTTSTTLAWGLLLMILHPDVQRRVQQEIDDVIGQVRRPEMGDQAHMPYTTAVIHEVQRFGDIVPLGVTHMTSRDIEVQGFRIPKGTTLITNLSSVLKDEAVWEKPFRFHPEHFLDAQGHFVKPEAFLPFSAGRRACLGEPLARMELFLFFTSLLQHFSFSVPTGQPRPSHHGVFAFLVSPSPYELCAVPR
Chain of CYP2C9 (P11712 whole entry): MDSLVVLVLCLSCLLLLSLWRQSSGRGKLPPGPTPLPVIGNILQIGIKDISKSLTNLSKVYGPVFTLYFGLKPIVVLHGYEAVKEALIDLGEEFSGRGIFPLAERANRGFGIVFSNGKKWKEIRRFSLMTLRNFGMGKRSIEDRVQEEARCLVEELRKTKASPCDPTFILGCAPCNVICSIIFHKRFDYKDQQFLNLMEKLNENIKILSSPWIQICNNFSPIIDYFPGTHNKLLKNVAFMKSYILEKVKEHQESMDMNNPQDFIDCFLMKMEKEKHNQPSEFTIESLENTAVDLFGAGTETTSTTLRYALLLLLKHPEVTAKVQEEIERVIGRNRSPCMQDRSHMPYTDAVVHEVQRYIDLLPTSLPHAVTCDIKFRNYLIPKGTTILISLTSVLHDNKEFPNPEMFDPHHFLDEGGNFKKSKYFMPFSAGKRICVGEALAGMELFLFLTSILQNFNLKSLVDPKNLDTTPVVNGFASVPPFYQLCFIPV
Chain of CYP3A4 (P08684 whole entry): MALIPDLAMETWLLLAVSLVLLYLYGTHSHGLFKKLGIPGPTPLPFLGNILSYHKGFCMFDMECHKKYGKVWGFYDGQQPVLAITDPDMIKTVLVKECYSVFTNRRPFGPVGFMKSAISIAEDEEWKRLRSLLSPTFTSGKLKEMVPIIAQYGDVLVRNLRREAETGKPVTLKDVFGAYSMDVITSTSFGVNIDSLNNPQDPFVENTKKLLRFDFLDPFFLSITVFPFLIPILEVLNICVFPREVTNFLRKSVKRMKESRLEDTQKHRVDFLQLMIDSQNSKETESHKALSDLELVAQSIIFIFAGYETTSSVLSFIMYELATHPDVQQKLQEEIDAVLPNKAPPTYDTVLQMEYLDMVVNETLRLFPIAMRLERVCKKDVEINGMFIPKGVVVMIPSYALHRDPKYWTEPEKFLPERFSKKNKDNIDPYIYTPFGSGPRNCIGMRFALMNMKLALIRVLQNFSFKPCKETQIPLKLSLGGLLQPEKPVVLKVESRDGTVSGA
Chain of BACE1 (Aβ40 in HEK293-APPswe/lon cells) (P56817 46-501): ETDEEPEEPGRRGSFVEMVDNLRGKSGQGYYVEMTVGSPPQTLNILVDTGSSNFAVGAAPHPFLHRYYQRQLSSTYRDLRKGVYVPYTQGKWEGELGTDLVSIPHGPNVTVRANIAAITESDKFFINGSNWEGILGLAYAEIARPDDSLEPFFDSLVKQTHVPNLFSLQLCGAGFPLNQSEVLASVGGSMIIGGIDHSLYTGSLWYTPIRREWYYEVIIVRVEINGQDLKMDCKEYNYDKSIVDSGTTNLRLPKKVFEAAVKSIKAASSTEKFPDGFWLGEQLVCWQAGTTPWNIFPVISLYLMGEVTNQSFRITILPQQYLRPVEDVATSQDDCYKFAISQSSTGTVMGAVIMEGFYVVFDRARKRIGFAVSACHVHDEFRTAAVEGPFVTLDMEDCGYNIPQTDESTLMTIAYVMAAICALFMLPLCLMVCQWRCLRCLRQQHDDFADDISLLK
Chain of human liver Cathepsin D (P07339 65-412): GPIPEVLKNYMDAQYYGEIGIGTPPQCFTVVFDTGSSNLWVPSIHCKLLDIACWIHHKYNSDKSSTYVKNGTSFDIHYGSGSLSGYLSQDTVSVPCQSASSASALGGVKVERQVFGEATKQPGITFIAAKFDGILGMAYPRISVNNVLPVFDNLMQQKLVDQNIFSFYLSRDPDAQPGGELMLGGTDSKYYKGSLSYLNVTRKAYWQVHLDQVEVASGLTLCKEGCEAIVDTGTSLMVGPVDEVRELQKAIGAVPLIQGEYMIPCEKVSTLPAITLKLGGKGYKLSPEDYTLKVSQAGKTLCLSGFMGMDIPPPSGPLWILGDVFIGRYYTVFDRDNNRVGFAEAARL
Chain of human liver Cathepsin D (P07339 169-412): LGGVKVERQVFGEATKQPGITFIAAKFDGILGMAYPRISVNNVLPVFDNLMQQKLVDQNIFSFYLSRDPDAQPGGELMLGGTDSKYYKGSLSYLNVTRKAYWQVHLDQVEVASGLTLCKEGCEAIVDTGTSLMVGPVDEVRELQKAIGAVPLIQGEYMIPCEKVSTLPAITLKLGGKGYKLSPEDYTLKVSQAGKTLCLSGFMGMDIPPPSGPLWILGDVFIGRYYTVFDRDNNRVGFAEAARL
Chain of hERG (Q12809 whole entry): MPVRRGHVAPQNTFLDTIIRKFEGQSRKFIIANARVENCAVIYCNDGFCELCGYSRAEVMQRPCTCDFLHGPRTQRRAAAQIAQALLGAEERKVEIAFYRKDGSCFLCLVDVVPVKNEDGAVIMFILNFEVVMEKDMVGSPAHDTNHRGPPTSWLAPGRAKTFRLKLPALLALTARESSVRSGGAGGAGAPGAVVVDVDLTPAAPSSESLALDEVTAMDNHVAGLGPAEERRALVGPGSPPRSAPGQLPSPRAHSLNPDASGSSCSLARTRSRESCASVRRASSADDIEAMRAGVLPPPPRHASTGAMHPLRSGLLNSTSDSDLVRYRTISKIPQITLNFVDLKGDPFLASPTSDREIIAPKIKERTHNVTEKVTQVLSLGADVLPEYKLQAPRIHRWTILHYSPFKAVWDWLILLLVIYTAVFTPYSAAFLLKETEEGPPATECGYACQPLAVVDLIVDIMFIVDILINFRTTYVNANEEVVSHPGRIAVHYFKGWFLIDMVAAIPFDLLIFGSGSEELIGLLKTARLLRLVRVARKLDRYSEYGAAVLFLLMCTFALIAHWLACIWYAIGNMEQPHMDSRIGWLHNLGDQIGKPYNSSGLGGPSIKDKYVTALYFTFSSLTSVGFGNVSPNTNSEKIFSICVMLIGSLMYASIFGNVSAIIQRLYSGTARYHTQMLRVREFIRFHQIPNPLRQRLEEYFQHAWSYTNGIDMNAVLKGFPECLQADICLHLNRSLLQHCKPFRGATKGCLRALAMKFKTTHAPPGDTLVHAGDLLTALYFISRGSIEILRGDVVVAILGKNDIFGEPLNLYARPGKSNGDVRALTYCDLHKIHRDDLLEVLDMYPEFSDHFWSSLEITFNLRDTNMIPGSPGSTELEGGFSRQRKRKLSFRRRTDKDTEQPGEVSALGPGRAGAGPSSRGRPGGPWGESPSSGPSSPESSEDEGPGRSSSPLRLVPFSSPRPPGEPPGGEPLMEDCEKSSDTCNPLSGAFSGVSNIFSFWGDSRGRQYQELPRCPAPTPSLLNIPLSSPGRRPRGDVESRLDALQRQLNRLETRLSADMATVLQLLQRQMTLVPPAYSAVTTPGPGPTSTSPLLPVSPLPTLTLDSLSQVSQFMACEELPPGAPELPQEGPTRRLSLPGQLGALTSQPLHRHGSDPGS

IC50 [1, 8] | IC50 [1, 9] | IC50 [2, 10] | IC50 [2, 11] | IC50 [3, 12] | IC50 [3, 13] | Ki [4] | IC50 [5] | CathD Selectivity [6] | SMILES | inhibition at 5 min, 1 uM [7] | inhibition at 5 min, 10 uM [7]
> 30 µM | > 30 µM | > 30 µM | > 30 µM | > 30 µM | ~30 µM |  |  |  | CCOc1nc(N2C[C@H]3C(=O)N(C)C(N)=N[C@@]3(c3ccccc3)C2)nc(C)c1F (racemic) [4 racemic] |  | 
> 30 µM | > 30 µM | > 30 µM | > 30 µM | > 30 µM | ~30 µM | 0.061 µM | 0.217 µM |  | CCc1nc(N2C[C@H]3C(=O)N(C)C(N)=N[C@@]3(c3ccccc3)C2)nc(C)c1F (racemic) [5 racemic] |  | 
> 30 µM | > 30 µM | > 30 µM | > 30 µM | ~30 µM | 24.9 µM | 0.016 µM | 0.144 µM | 318 | CCc1nc(N2C[C@H]3C(=O)N(C)C(=N)N[C@@]3(c3ccccc3)C2)nc(OC)c1F (racemic) [6 racemic] |  | 
 |  |  |  |  |  | 0.094 µM | 0.664 µM |  | Cc1nc(N2C[C@H]3C(=O)N(C)C(N)=N[C@@]3(c3ccccc3)C2)nc(C2CC2)c1Cl (racemic) [7 racemic] |  | 
> 30 µM | > 30 µM | > 30 µM | > 30 µM | > 30 µM | > 30 µM | 0.154 µM | 0.292 µM |  | Cc1nc(N2C[C@H]3C(=O)N(C)C(N)=N[C@@]3(c3ccccc3)C2)nc(C)c1F (racemic) [23 racemic] |  | 
> 30 µM | > 30 µM | > 30 µM | > 30 µM | ~30 µM | 22.6 µM | 0.137 µM |  | 129 | CCOc1nc(N2C[C@H]3C(=O)N(C)C(=N)N[C@@]3(c3ccccc3)C2)nc(OC)c1F (racemic) [24 racemic] |  | 
> 20 µM | > 20 µM | > 20 µM | > 20 µM | > 20 µM | > 20 µM | 0.044 µM | 0.349 µM |  | Cc1nc(N2C[C@H]3C(=O)N(C)C(N)=N[C@@]3(c3ccccc3)C2)nc(C2CC2)c1F (racemic) [25 racemic] |  | 
> 20 µM | > 20 µM | > 20 µM | > 20 µM | > 20 µM | > 20 µM | 0.18 µM |  |  | CCc1nc(N2C[C@H]3C(=O)N(C)C(N)=N[C@@]3(c3ccccc3)C2)nc(C2CC2)c1Cl (racemic) [26 racemic] |  | 
> 20 µM | > 20 µM | > 20 µM | > 20 µM | > 20 µM | > 20 µM | 0.0092 µM | 0.04 µM | 221 | COc1nc(N2C[C@H]3C(=O)N(C)C(=N)N[C@@]3(c3ccc(F)c(Cl)c3F)C2)nc(C)c1F (racemic) [39 racemic] | 3% | 61%
> 20 µM | > 20 µM | > 20 µM | > 20 µM | > 20 µM | > 20 µM |  |  | 162 | COc1nc(N2C[C@H]3C(=O)N(C)C(=N)N[C@@]3(c3cc(F)ccc3Cl)C2)nc(C)c1F [Example 2] | 8% | 50%
12.7 µM | 8.5 µM | > 20 µM | > 20 µM | > 20 µM | > 20 µM |  |  |  | COc1nc(N2C[C@H]3C(=O)N(C)C(=N)N[C@@]3(c3cc(Cl)ccc3F)C2)nc(C)c1F [Example 3] | 22% | 89%
> 20 µM | > 20 µM | > 20 µM | > 20 µM | > 20 µM | > 20 µM |  |  |  | COc1nc(N2C[C@H]3C(=O)N(C)C(N)=N[C@@]3(c3cc(F)c(F)cc3F)C2)nc(C)c1F [Example 8] | 21% | 89%
~30 µM | ~30 µM | 18.6 µM | > 30 µM | > 30 µM | > 30 µM | 0.0056 µM | 0.066 µM | 386 | COc1nc(N2C[C@H]3C(=O)N(C)C(=N)N[C@@]3(c3cc(F)ccc3F)C2)nc(OC)c1F [Example 9] | 12% | 71%
> 30 µM | > 30 µM | > 30 µM | > 30 µM | > 30 µM | ~30 µM | 0.0018 µM | 0.0075 µM | 583 | COc1nc(N2C[C@H]3C(=O)N(C)C(=N)N[C@@]3(c3ccc(F)cc3F)C2)nc(OC)c1F [Example 10] | 7% | 74%
> 20 µM | > 20 µM | > 20 µM | > 20 µM | > 20 µM | > 20 µM | 0.015 µM | 0.021 µM | 773 | COc1nc(N2C[C@H]3C(=O)N(C)C(=N)N[C@@]3(c3c(F)cc(F)cc3F)C2)nc(C)c1F [Example 13] |  | 
> 20 µM | > 20 µM | > 20 µM | > 20 µM | > 20 µM | > 20 µM | 0.043 µM | 0.213 µM |  | Cc1nc(N2C[C@H]3C(=O)N(C)C(=N)N[C@@]3(c3cccc(C#N)c3)C2)nc(C2CC2)c1F [Example 14] | 6% | 59%
 |  |  |  |  |  | 0.0093 µM | 0.032 µM | 228 | COc1nc(N2C[C@H]3C(=O)N(C)C(=N)N[C@@]3(c3ccccc3F)C2)nc(C)c1Cl [Example 18] |  | 
> 20 µM | > 20 µM | > 20 µM | > 20 µM | > 20 µM | > 20 µM | 0.0068 µM | 0.117 µM | 236 | COc1nc(N2C[C@H]3C(=O)N(C)C(=N)N[C@@]3(c3ccc(F)cc3F)C2)nc(C2CC2)c1Cl [Example 19] | 3% | 20%
8.9 µM | 7.5 µM | 8.3 µM | > 20 µM | > 20 µM | > 20 µM | 0.0045 µM | 0.0095 µM | 106 | COc1nc(N2C[C@H]3C(=O)N(C)C(=N)N[C@@]3(c3ccc(F)cc3Cl)C2)nc(C)c1F [Example 20] | 29% | 93%
> 20 µM | > 20 µM | > 20 µM | > 20 µM | 10.1 µM | 13.7 µM | 0.0048 µM | 0.05 µM | 50 | COc1nc(N2C[C@H]3C(=O)N(C)C(=N)N[C@@]3(c3ccc(F)cc3)C2)nc(C2CC2)c1F [Example 21] | 7% | 73%
> 20 µM | ~20 µM | > 20 µM | > 20 µM | > 20 µM | > 20 µM | 0.0056 µM | 0.018 µM | 53 | CCc1nc(N2C[C@H]3C(=O)N(C)C(=N)N[C@@]3(c3cc(F)c(F)cc3F)C2)nc(OC)c1F [Example 22] | 35% | 96%
> 30 µM | > 30 µM | 4.2 µM | > 30 µM | ~30 µM | 14.7 µM | 0.0044 µM | 0.0615 µM | 1063 | COc1nc(N2C[C@H]3C(=O)N(C)C(=N)N[C@@]3(c3ccc(F)cc3)C2)nc(OC)c1F [Example 27] | 2% | 51%
 |  |  |  |  |  | 0.039 µM | 0.176 µM | 43 | COc1nc(N2C[C@H]3C(=O)N(C)C(=N)N[C@@]3(c3cccc(Cl)c3)C2)nc(C)c1F [Example 33] |  | 
> 20 µM | > 20 µM | > 20 µM | > 20 µM | > 20 µM | > 20 µM | 0.026 µM | 0.235 µM |  | Cc1nc(N2C[C@H]3C(=O)N(C)C(=N)N[C@@]3(c3cc(F)ccc3F)C2)nc(C2CC2)c1F [Example 37] | 12% | 73%
> 20 µM | > 20 µM | > 20 µM | > 20 µM | > 20 µM | > 20 µM |  |  |  | COc1nc(N2C[C@H]3C(=O)N(C)C(N)=N[C@@]3(c3c(F)ccc(F)c3F)C2)nc(C)c1F [Example 40] | 15% | 81%
 |  |  |  |  |  | 0.032 µM | 0.067 µM | 346 | COc1nc(N2C[C@H]3C(=O)N(C)C(=N)N[C@@]3(c3ccc(F)cc3F)C2)nc(C(F)(F)F)c1F [Example 41] | 1% | 77%
 |  |  |  |  |  | 0.011 µM |  |  | COc1nc(N2C[C@H]3C(=O)N(C)C(=N)N[C@@]3(c3ccc(F)cc3F)C2)nc(C(C)(F)F)c1F [Example 42] |  | 
